Reference: patent US20060281806A1, “Treatment and inhibition of disease conditions using flexible heteroarotinoids” (priority 2005, published 2006)

Columns and labels:
[1] = RAID pharmacokinetic studies (35); cited from earlier work
[2] = system: organotypic cultures of normal endometrial cells treated with DMBA; test: Chemoprevention in DMBA-treated organotypic cultures of normal endometrial cells; format: cell-based; conditions: histology and karyometric analysis
Source text: Untreated: The specimen is cellular with both surface and mid-gel cells presence in abundance. Two cell types are clearly present. One appears to be stromal. The nuclei are thin and spindle shaped and the cytoplasm is similar. When cut in cross-section the nuclei are very small and round and hyperchromatic. The other cells have large, oval to almost boxcar nuclei with small nucleoli and abundant cytoplasm. Numerous mitosis are present. The epithelial cells are almost syncitial in nature and appear to cling to one another. With DMBA Carcinogen: The specimen is cellular. The cells present have lost their cytoplasm. There is more pleomorphism of the cells and many are very hyperchromatic. Mitoses are very numerous-approximately 2× the number in untreated. Cells no longer are together but are distinct one from another. Stromal cells intermix with the epithelial cells. […]
FIG. 19 illustrates a typical experiment in which organotypic cultures of normal endometrial cells were treated with a carcinogen called DMBA and developed the cancer phenotype. […] All segmented nuclei were then subjected to texture feature extraction using TICAS software, resulting in 95 textrue features for each nucleus that were subjected to quantitative analysis.

Thrombospondin 4 (TSP4) = test: Real time rt-PCR and Western blot validation, TSP-4; format: cell-based; conditions: 1 μM (rt-PCR, OVCAR-3) and 10 μM (Western blot, A2780)
Description: FIG. 13. Real Time rt-PCR validation of SHetA2 inhibition of TP and TSP-1 mRNA Expression. OVCAR-3 cultures were treated with 1 μM SHetA2 for the indicated period of time prior to harvesting the cells and isolating RNA. cDNA was prepared and used in real time rt-PCR reactions. Real time rt-PCR was performed on CDNA from cultures various treatment times.
FIG. 14. Western blot validation of SHetA2 inhibition of TP and TSP4 protein expression. A2780 ovarian cancer cells were treated with 10 μM SHetA2 for the indicated amounts of time. Equal amounts of whole cell protein extracts were evaluated by Western blot.

ovarian cancer cells = test: Microarray analysis of gene expression in SHetA2-treated ovarian cancer cells; format: cell-based, human
Description: Microarray analysis was conducted to determine specific disease causing genes which were expressed at higher (>1 fold) or lower (<1 fold) levels than normal in ovarian cancer cells treated with SHetA2 (see Table 6).

Question: Which results are given for `CC1(C)CC(C)(C)c2cc(NC(=S)Nc3ccc([N+](=O)[O-])cc3)ccc2S1` [SHetA2]?
Answer: concentrations achieved and maintained in mice [1]: micromolar concentrations; development of the DMBA-induced cancer phenotype [2]: prevented the development of this phenotype; expression of TSP-4 at the RNA and protein levels (Thrombospondin 4 (TSP4)): inhibit expression; Fold (ovarian cancer cells; gene: 3-hydroxyisobutyrate dehydrogenase, mitochondrial precursor, AK025558): 0.00 Fold; Fold (ovarian cancer cells; gene: A kinase (PRKA) anchor protein 1, clone MGC:1807, BC000729.1): 2.00 Fold; Fold (ovarian cancer cells; gene: A kinase anchor protein S-AKAP84 mRNA, U34074.1): 2.14 Fold; Fold (ovarian cancer cells; gene: ADAMTS1, AK023795.1): 0.43 Fold; Fold (ovarian cancer cells; gene: ADAMTS5, NM_007038.1): 0.23 Fold; Fold (ovarian cancer cells; gene: ASPLTFE3 type 2 fusion protein, ASPLTFE3 type 1 fusion protein mRNA, AY034077.1): 0.46 Fold; Fold (ovarian cancer cells; gene: ATP-binding cassette, sub-family B (MDRTAP), member 6 (ABCB6), NM_005689.1): 0.46 Fold; Fold (ovarian cancer cells; gene: ATP-binding cassette, sub-family D (ALD), member 2 (ABCD2), NM_005164.1): 2.71 Fold; Fold (ovarian cancer cells; gene: Amyotrophic lateral sclerosis 2 (juvenile) chromosome region, candidate 3 (ALS2CR3), NM_015049.1): 0.41 Fold; Fold (ovarian cancer cells; gene: Angiopoietin-like 2 (ANGPTL2), NM_012098.1): 2.16 Fold; Fold (ovarian cancer cells; gene: B-cell CLLlymphoma 3 (BCL3), AI829875): 2.58 Fold; Fold (ovarian cancer cells; gene: B-cell CLLlymphoma 3 (BCL3), NM_005178.1): 2.05 Fold; Fold (ovarian cancer cells; gene: BAGE2 antigen (BAGE2), AF218570.1): 0.34 Fold; Fold (ovarian cancer cells; gene: BAM in multiple myeloma, AF455755.1): 3.05 Fold; Fold (ovarian cancer cells; gene: Butyrophilin (BTF3), Cluster Incl. U90548): 2.15 Fold; Fold (ovarian cancer cells; gene: Butyrophilin, subfamily 3, member A2 (BTN3A2), AI991252): 2.31 Fold; Fold (ovarian cancer cells; gene: Butyrophilin, subfamily 3, member A3 (BTN3A3), NM_006994.2): 2.04 Fold; Fold (ovarian cancer cells; gene: Cervical cancer suppressor gene-4 protein (HCCS-4), AF465843.1): 2.06 Fold; Fold (ovarian cancer cells; gene: Chromosome 5 open reading frame 4 (C5ORF4), NM_016348.1): 2.76 Fold; Fold (ovarian cancer cells; gene: Deleted in lymphocytic leukemia, 2/DEF = Homo sapiens BCMS-upstream neighbor (BCMSUN), AF264787.1): 0.33 Fold; Fold (ovarian cancer cells; gene: Deleted in lymphocytic leukemia, BCMS-upstream neighbor (BCMSUN) (DLEU2), AF264787.1): 0.40 Fold; Fold (ovarian cancer cells; gene: Dysferlin, limb girdle muscular dystrophy 2B (DYSF), NM_003494.1): 2.16 Fold; Fold (ovarian cancer cells; gene: Dystrophin, dystrophin Dp40 isoform (DMD), NM_004019.1): 2.76 Fold; Fold (ovarian cancer cells; gene: EHT protein, AF068266.1): 2.80 Fold; Fold (ovarian cancer cells; gene: ESTs, Moderately similar to S72399 ras-homolog GTPase rab28 isoform S, AI080106): 7.75 Fold; Fold (ovarian cancer cells; gene: ESTs, Weakly similar to DRPL_Human Atrophin-1 (DRPL) in Huntington's disease (HD) and DRPLA, AI358954): 2.52 Fold; Fold (ovarian cancer cells; gene: ESTs, Weakly similar to DRPL_Human Atrophin-1 (DRPL) in dentatorubral-pallidoluysian atrophy, AI358954): 2.52 Fold; Fold (ovarian cancer cells; gene: Endothelial cell growth factor 1 (platelet-derived)/Thymidine phosphorylase, NM_001953): 0.42 Fold; Fold (ovarian cancer cells; gene: Enhancer of zeste (Drosophila) homolog 2 (EZH2) (USP14), NM_004456.1): 0.47 Fold; Fold (ovarian cancer cells; gene: FLJ23538 fis, highly similar to BETA2 Human MEN1 region clone epsilonbeta (BETA2), AI042152): 0.31 Fold; Fold (ovarian cancer cells; gene: FYN oncogene related to SRC, FGR and YES (FYN), N20923): 0.13 Fold; Fold (ovarian cancer cells; gene: FYN oncogene related to SRC, FGR and YES, c-syn protooncogene, M14333.1): 0.44 Fold; Fold (ovarian cancer cells; gene: Facioscapulohumeral muscular dystrophy (FSHD) gene region, D4Z4 tandem repeat unit, D38024): 2.43 Fold; Fold (ovarian cancer cells; gene: Familial Mediterranean fever locus region, AF098968.1): 0.30 Fold; Fold (ovarian cancer cells; gene: Fibroblast growth factor 2 (basic)(FGF2), NM_002006.1): 0.35 Fold; Fold (ovarian cancer cells; gene: Fibroblast growth factor 18 (FGF18), NM_003862.1): 2.75 Fold; Fold (ovarian cancer cells; gene: Galactosamine (N-acetyl)-6-sulfate sulfatase, NM_000512): 0.52 Fold; Fold (ovarian cancer cells; gene: Glypican-6 (GPC6), AF111178.1): 2.07 Fold; Fold (ovarian cancer cells; gene: Hemochromatosis splice variant 495-2314del, AF144243.1): 3.01 Fold; Fold (ovarian cancer cells; gene: IMAGE:3050107 mRNA, TBC1 domain family, BC001525): 0.67 Fold; Fold (ovarian cancer cells; gene: Keratocan (KERA), NM_007035.2): 0.50 Fold; Fold (ovarian cancer cells; gene: Lipoma cell line Li-538SV40 ectopic sequence from HMGI-C fusion mRNA (LI), AI990940): 0.47 Fold; Fold (ovarian cancer cells; gene: METH1 protein (METH1), AF060152.1): 0.39 Fold; Fold (ovarian cancer cells; gene: Myeloidlymphoid leukemia 2 (MLL2), AF105279.1): 0.31 Fold; Fold (ovarian cancer cells; gene: Myeloidlymphoid or mixed-lineage leukemia, translocated to, 4 (HGC6.3), AB016902.2): 5.07 Fold; Fold (ovarian cancer cells; gene: N-cym protein, NM_006316): 2.38 Fold; Fold (ovarian cancer cells; gene: NICE-5 protein, AW779859): 0.48 Fold; Fold (ovarian cancer cells; gene: Nasopharyngeal carcinoma susceptibility protein (LZ16), NM_013275.1): 0.41 Fold; Fold (ovarian cancer cells; gene: Nephropontin, M83248.1): 2.34 Fold; Fold (ovarian cancer cells; gene: Neuroblastoma, suppression of tumorigenicity 1 (NBL1), NM_005380.1): 3.07 Fold; Fold (ovarian cancer cells; gene: Niban protein (NIBAN), NM_022083.1): 0.21 Fold; Fold (ovarian cancer cells; gene: Novel MAFF LIKE protein, Cluster Incl. AL021977): 0.47 Fold; Fold (ovarian cancer cells; gene: PNAS-128 in leukemia, AF277186.1): 0.36 Fold; Fold (ovarian cancer cells; gene: Peroxisomal biogenesis factor 3 (PEX3), NM_003630.1): 0.43 Fold; Fold (ovarian cancer cells; gene: Peroxisomal biogenesis factor 14 (PEX14), NM_004565.1): 2.06 Fold; Fold (ovarian cancer cells; gene: Promyelocytic leukemia (PML), NM_002675.1): 2.76 Fold; Fold (ovarian cancer cells; gene: Prostate cancer associated protein 5 (PCANAP5), AI299378): 0.23 Fold; Fold (ovarian cancer cells; gene: Prothymosin alpha (PTMA), AF257099): 2.60 Fold; Fold (ovarian cancer cells; gene: Putative c-Myc-responsive (RCL), AA523444): 0.41 Fold; Fold (ovarian cancer cells; gene: RASSF3 isoform A, putative tumor suppressor, AY062002.1): 2.88 Fold; Fold (ovarian cancer cells; gene: RNA binding motif protein 5, putative tumor suppressor (LUCA15), U23946.1): 0.43 Fold; Fold (ovarian cancer cells; gene: Regulatory factor X-associated protein (RFXAP), NM_000538.1): 0.41 Fold; Fold (ovarian cancer cells; gene: Retinitis pigmentosa GTPase regulator (RPGR), NM_000328.1): 0.47 Fold; Fold (ovarian cancer cells; gene: Rhabdoid tumor deletion region protein 1 (RTDR1), NM_014433.1): 2.20 Fold; Fold (ovarian cancer cells; gene: SNRPN upstream reading frame (SNURF), BF114870): 0.39 Fold; Fold (ovarian cancer cells; gene: Sarcoglycan, gamma (35 kD dystrophin-associated glycoprotein), NM_000231.1): 0.04 Fold; Fold (ovarian cancer cells; gene: Similar to vitelliform macular dystrophy (Best disease, bestrophin), BC041664.1): 0.26 Fold; Fold (ovarian cancer cells; gene: Smcx homolog, X chromosome (mouse), NM_004187): 0.61 Fold; Fold (ovarian cancer cells; gene: Sulfite oxidase (SUOX), NM_000456.1): 2.11 Fold; Fold (ovarian cancer cells; gene: Thrombospondin 1 (THBS1), BE999967): 0.42 Fold; Fold (ovarian cancer cells; gene: Thrombospondin 4, NM_003248): 0.58 Fold; Fold (ovarian cancer cells; gene: Thromospondin 4 (THBS4), NM_03248.1): 2.58 Fold; Fold (ovarian cancer cells; gene: Transglutaminase 4 (prostate), NM_003241): 0.24 Fold; Fold (ovarian cancer cells; gene: Translocase of inner mitochondrial membrane 44 (yeast) homolog (TIM44), NM_006351.1): 0.50 Fold; Fold (ovarian cancer cells; gene: Trichorhinophalangeal syndrome I gene (TRPS1), NM_014112.1): 0.36 Fold; Fold (ovarian cancer cells; gene: UDP-galactose-4-epimerase, NM_000403): 0.66 Fold; Fold (ovarian cancer cells; gene: Unknown protein mRNA within the p53 intron 1, U58658.1): 0.45 Fold; Fold (ovarian cancer cells; gene: Vascular endothelial growth factor (VEGF), AF022375.1): 0.47 Fold; Fold (ovarian cancer cells; gene: Vitelliform macular dystrophy (Best disease, bestrophin) (VMD2), NM_004183.1): 0.28 Fold; Fold (ovarian cancer cells; gene: aarF domain containing kinase 4, BC013114): 2.30 Fold; Fold (ovarian cancer cells; gene: v-Myc avian myelocytomatosis viral related oncogene, neuroblastoma derived (MYCN), BC002712.1): 3.99 Fold
